{"source": "patent US20040192686A1", "about": "“Benzoazine mono-N-oxides and benzoazine 1,4 dioxides and compositions therefrom for the therapeutic use in cancer treatments” (Auckland Uniservices Limited, priority 2003, published 2004)", "key": {"[1]": {"test_system": "hypoxic (radioresistant) cells in HT29 tumours", "test": "HT29 tumour xenograft excision assay: clonogenic survivors 18 hr after radiation and drug", "assay_type": "in vivo, mice", "protocol": "Animals with subcutaneous tumours (ca 300 mg) received whole body radiation (RAD; 20 Gy) to sterilise oxygenated tumour cells. Activity of drugs against the hypoxic survivors was determined by intraperitoneal administration of solutions in 5% DMSO/saline 5 min after radiation, using TPZ alone (133 μmol/kg) or in combination with SR 4317 (1000 μmol/kg). Tumours were excised 18 hr after treatment, dissociated enzymatically, and plated to determine the number of clonogenic survivors. Values are geometric means and error bars are standard errors of the mean. Horizontal lines show historical values for untreated controls and radiation only (solid lines are means, dashed lines are 95% confidence limits. p values were determined by one-way ANOVA using only data within this experiment.\nThe utility of SR 4317 as a potentiator of the hypoxic cytotoxicity of TPZ was assessed in an in vivo model (HT29 tumour xenografts) as illustrated in FIG. 7. In this experiment tumour response was determined by excising tumours 18 hr after treatment and quantifying the number of clonogenic survivors by plating in vitro. TPZ was administered at a sub-efficacious dose (0.133 mmol/kg), 5 minutes after whole body radiation (20 Gy). […] No significant cytotoxicity was observed when the two compounds were administered in the absence of irradiation, indicating lack of activity against aerobic cells in tumours (FIG. 7)."}, "HT29 cells [2]": {"test_system": "HT29 cells", "test": "TPZ potentiation test: IC50 of TPZ with and without potentiator, anoxic HT29 cells", "assay_type": "cell-based, human", "settings": "4 hr anoxic exposure of HT29 cells"}, "[3]": {"test": "Plasma pharmacokinetics after intraperitoneal administration", "assay_type": "in vivo, CD-1 mice", "protocol": "The plasma pharrmacokinetics of SR 4317 and TPZ were determined in C3H mice, alone and in combination (FIG. 6), to assess whether therapeutic concentrations of SR 4317 can be achieved in mice."}, "HT-29 MCLs": {"test_system": "HT-29 MCLs", "assay_type": "in vitro ADME, human", "protocol": "Compounds are added to the donor compartment, along with ^14C-urea as an internal standard, and diffusion into the receiver compartment is monitored by HPLC and scintillation counting.\nThe concentrations in the Receiver compartment (normalised against the initial concentration in the Donor compartment) are plotted against those of the flux marker ^14C-urea to account for small differences in thickness of the MCLs. The fitted diffusion coefficients for TPZ (n=12) and SR 4317 (n=2) are: […] cm^2 sec^−1, respectively.\nThe inventors have also investigated the extravascular transport properties (tissue diffusion characteristics) of SR 4317 to assess whether it can diffuse well enough to reach hypoxic cells in tumours efficiently. This study used the multicellular layer (MCL) assay (Hicks et al., Int. J. Radiat. Oncol., Biol., Phys., 1998, 42, 641; Hicks et al., J. Pharmacol. Exper. Ther., 2001, 297, 1088), developed in this laboratory."}, "[4]": {"test": "Approximate solubility limit in Alpha MEM culture medium containing 5% fetal calf serum", "assay_type": "physicochemical", "settings": "plasma or biological fluid, kinetic from dmso stock, dilution from DMSO stock solutions"}, "[5]": {"test_system": "HT29 human colon carcinoma cells", "test": "Cytotoxicity (plating efficiency) in stirred single cell suspensions of HT29 cells, anoxic or aerobic", "settings": "for Potentiation of the aerobic cytotoxicity of TPZ: HT29 cells, gas phase 5% CO2 in air", "from_the_text": "Cultures were maintained at <10 ppm O2 under a continuously-flowing stream of 5% CO2 in nitrogen and were sampled at intervals to determine plating efficiency.\nExperimental conditions were as for FIG. 2, except that the gas phase was 5% CO2 in air. Values are means and error bars are ranges for duplicate cultures.\nDrug exposure time was 1 hr. Error bars represent the range for duplicate determinations."}, "[6]": {"test_system": "HT29 colon carcinoma cells", "test": "IC50 assay of potentiator alone, HT29 cells, 4 hr anoxic exposure, sulphorhodamine B staining", "assay_type": "cell-based, human", "settings": "Homo sapiens, HT-29, 4 hr exposure under anoxic conditions, cell density by sulphorhodamine B five days after washing out"}, "HT29 cells [7]": {"test_system": "HT29 cells", "test": "Radiosensitisation of anoxic HT29 cells", "assay_type": "cell-based, human", "settings": "0.6 mM of each agent; anoxic HT29 cells irradiated 5 min after drug addition", "protocol": "Anoxic cell suspensions were irradiated 5 min after addition of pre-equilibrated anoxic drug solutions. Data are shown for duplicate determinations, and are fitted using a linear-quadratic model"}, "Solubility of SR 4317": {"test": "Solubility of SR 4317", "assay_type": "physicochemical"}}, "note": "Where two headings read alike, the source gives them in different places."}
{"smiles": "Nc1n[n+]([O-])c2ccccc2[n+]1[O-]", "note": "[TPZ, tirapazamine, reference compound]", "values": [{"measurement": "Killing of the (hypoxic) cells surviving radiation", "setting": "[1]; TPZ alone 0.133 mmol/kg i.p. 5 minutes after whole body radiation (20 Gy), HT29 xenografts, clonogenic survivors at 18 hr", "result": "did not result in statistically significant killing"}, {"measurement": "IC50", "setting": "HT29 cells [2]; Homo sapiens, HT-29, mean ± sem, n = 4, read-out: IC50 for TPZ alone", "result": 6.8, "unit": "µM"}]}
{"smiles": "Nc1nc2ccccc2[n+]([O-])n1", "note": "[Compound 3, 1,2,4-Benzotriazin-3-amine 1-oxide]", "values": [{"measurement": "Maximum SR 4317 concentration in plasma", "setting": "[3]; after intraperitoneal co-administration of TPZ + SR 4317 (750 μmol/kg), mice", "result": "~200", "unit": "µM"}, {"measurement": "Plasma concentrations in mice", "setting": "[3]; general statement", "result": "relatively low"}, {"measurement": "Clearance from plasma", "setting": "[3]; over the first two hours after co-administration of TPZ and SR 4317, mice", "result": "slow clearance"}, {"measurement": "Transport through hypoxic MCLs", "setting": "HT-29 MCLs", "result": "faster than for TPZ"}, {"measurement": "solubility", "setting": "[4]", "result": 800, "unit": "µM"}, {"measurement": "Activity of radiation + TPZ + SR 4317 compared with radiation alone", "setting": "[1]; SR 4317 1 mmol/kg added to TPZ 0.133 mmol/kg after 20 Gy, p<0.01 by one way ANOVA", "result": "greater than radiation alone"}, {"measurement": "Difference between radiation+TPZ and radiation+TPZ+SR 4317", "setting": "[1]; SR 4317 1 mmol/kg, TPZ 0.133 mmol/kg, 20 Gy, p <0.05", "result": "significant"}, {"measurement": "Potentiation of the cytotoxicity of TPZ to hypoxic tumour cells", "setting": "[5]; HT29 cells in culture, anoxic (<10 ppm O2), TPZ 30 μM, simultaneous exposure", "result": "increased quite markedly"}, {"measurement": "Potentiation of the aerobic cytotoxicity of TPZ", "setting": "[5]; listed as SR 4317", "result": "does not potentiate"}, {"measurement": "Potentiation of the aerobic cytotoxicity of TPZ", "setting": "[5]; listed as SR4317", "result": "lack of potentiation"}, {"measurement": "Potentiation of TPZ cytotoxicity", "setting": "[5]; SR 4317 at 100 μM for 1 hr, TPZ 30 μM, anoxic HT29 cells", "result": "significant potentiation"}, {"measurement": "Relative dose potency for potentiation of the hypoxic cytotoxicity of TPZ", "setting": "[5]; TPZ 30 μM, anoxic HT29 cells 5×10^5/ml, drug exposure 1 hr", "result": "SR 4317>metronidazole=misonidazole"}, {"measurement": "Toxicity of SR4317 alone", "setting": "[5]; anoxic HT29 suspension, 5×10^5 cells/ml, up to its solubility limit (ca 1 mM)", "result": "non-toxic"}, {"measurement": "IC50", "setting": "[6]", "result": "> 500", "unit": "µM"}, {"measurement": "TPR (TPZ potentiation ratio) = TPZ IC50 without potentiator/TPZ IC50 with potentiator", "setting": "HT29 cells [2]; conc of potentiator 0.5 mM", "result": 2.0}, {"measurement": "Relative potency for radiosensitization of hypoxic HT29 cells", "setting": "HT29 cells [7]", "result": "misonidazole>metronidazole=SR4317"}, {"measurement": "solubility", "setting": "Solubility of SR 4317; aqueous solution, read-out: Aqueous solubility", "result": "~800", "unit": "µM"}, {"measurement": "solubility", "setting": "Solubility of SR 4317; as stated for the HT29 cell suspension experiment (FIG. 1), read-out: Solubility limit", "result": "~1000", "unit": "µM"}]}
{"smiles": "Cc1ncc([N+](=O)[O-])n1CCO", "note": "[metronidazole, reference compound]", "values": [{"measurement": "Relative dose potency for potentiation of the hypoxic cytotoxicity of TPZ", "setting": "[5]", "result": "lower dose potency than SR 4317"}, {"measurement": "Relative potency for radiosensitization of hypoxic HT29 cells", "setting": "HT29 cells [7]", "result": "misonidazole>metronidazole=SR4317"}]}
